Tests used:
[1] = in vivo; cited from earlier work
[2] = Effect of relative humidity on adsorption of water vapour (deliquescence); assay type: physicochemical

Row | SMILES | biological half-life [1] | relative humidity (RH) at which deliquescence is exhibited [2] [%]
1 | CN(C)C(=O)Oc1ccc[n+](C)c1 [Pyridostigmine, (1-methylpyridin-1-ium-3-yl) N,N-dimethylcarbamate] | 2-3 hours | –
2 | CN(C)C(=O)Oc1ccc[n+](C)c1 [pyridostigmine bromide] | – | 33

— patent US12527777B2, “Sustained release pyridostigmine compositions” (priority 2018, dated 2026)
